For series [1], the system named is HRT-18 cells. The experiment in a line: Intracellular accumulation of macrolides in HRT-18 cells. The format is in vitro ADME, human. Particulars: for intracellular:extracellular ratio: human, 10 μg/mL. As for the experimental part: HRT-18 cells, in 6 cm tissue cultures dishes, were incubated in the presence of 0.5, 5 or 50 μg/mL tylvalosin. After 4 h, two dishes for each tylvalosin concentration and two dishes without antibiotic were removed from the incubator. A sample of medium (about 1 mL) was removed, placed in a labelled Eppendorf tube and stored at −20° C. The rest of the medium was then removed. Each of the cell monolayers was washed twice in PBS, using approximately 5 mL for each wash. The plunger from a 2 mL plastic syringe was used to gently scrape off the cells. PBS (500 μL) was added to the dish and the cells gently removed into this medium, using a micropipette. The sample was then placed in an Eppendorf tube and centrifuged at 8000×g in a bench centrifuge (Biofuge pico, Heraeus instruments) for 13 sec. An obvious cell pellet formed. The supernatant was removed using a micropipette and the cell material was stored at −20° C. in a labelled Eppendorf tube. After approximately 24 h the remaining tissue culture dishes were removed from the incubator and treated as described above for the 4 h samples. All the samples, including the 4 h samples, were then stored at −70° C.
HRT-18 cells were prepared as described above and used at passage 42. Stock solutions of antibiotics (either tylvalosin, tylosin or tilmicosin) were diluted in growth media and 10 μg/mL each antibiotic was added to the confluent cell monolayers. The cells were incubated at 37° C. in a 5% CO2 atmosphere for either 4 h or 24 h. The media and cells were harvested and tested for antibiotic, as described above.
(§1) All the supernatant and cell samples were transported frozen (at approximately −20° C.) to York Bioanalytical Solutions (York, England) for analysis. Briefly, 0.25 g of buffer (RPMI medium containing 10% FCS) was weighed into a polypropylene tube. A 50 μL volume of the appropriate working solution was added to the quality control (QC) samples. Methanol (50 μL) was added to each blank sample used for preparation of calibration standards, recovery samples and reagent blanks. A 2.5 mL volume of 0.1 M phosphate buffer was added to each sample, vortex mixed for approximately 1 min and then centrifuged at 3220×g for 10 min at 4° C.
(§2) For the liquid-liquid clean-up phase, an aliquot (100 μL) of the supernatant was transferred to a polypropylene tube. The pH was adjusted to pH 8-8.5 by the addition of 0.1 M NaOH, and vortex mixed. Ethyl acetate (5 mL) was added and after capping, the whole mixture was shaken for 10 min and then centrifuged at 3220×g for 10 min at 4° C.
(§3) Ammonium acetate (20 mM; pH native)—formic acid, 1000:3, v/v (100 μL) was added to each well in a 2 mL polypropylene collection plate. An aliquot of the ethyl acetate mixture (100 μL) was transferred to the polypropylene collection plate and evaporated under nitrogen (40° C.) until the ethyl acetate was fully evaporated whilst the ammonium acetate remained. Methanol (100 μL) was added to each well, excluding the calibration standards.
(§4) To each well containing a calibration standard, 100 μL of the appropriate calibration working solution was added. Samples were then vortex mixed for at least 10 min and submitted for liquid chromatography with tandem mass spectrometric analysis. The method stated was applicable to the samples of media (and the calibration standards and quality control samples).
(§5) For the cells, the sample tubes were weighed, and 100 μL of acetonitrile was added. The samples were vortex mixed for 10 sec, then centrifuged at 10285×g at 4° C. for 5 min. The sample was transferred to a polypropylene tube. The original sample tube was washed with 0.1 M phosphate buffer (1 mL). This was transferred to the polypropylene tube. A second wash of 1 mL was made, then a final wash of 0.5 mL. The polypropylene tube was now at the same stage as the end of the liquid extraction, but with the cells present rather than media. This was then taken through the sample preparation as described above. […]

The conditions of series [2]: in vivo; cited from earlier work.
Series [3] has as its system PRRSV.
The subject of series [4] is FCV.
Series [5] relates to PRRSV. The experiment in a line: Inhibitors of PRRSV infection added at various times pre and post infection (Example 7). Type of series: cell-based. To be noted: for PRRSV spread / initial PRRSV infection (initial site of infection): added 2 or 4 hours after infection.
Series [6] deals with EAV. The experiment in a line: Sensitivity to chloroquine (Example 8), EAV.
The test system of series [7] is equine arteritis virus (EAV). Kind of series: Effect on equine arteritis virus infection (Example 6). The format is cell-based. As for the experimental part: Experiments were carried out to determine whether tylvalosin has an effect on equine arteritis virus (EAV).
Series [8] concerns PRRSV. The experiment in a line: Effect of macrolides on PRRSV (background statement).
The test system of series [9] is LLC-PK1 cells. Kind of series: Intracellular accumulation in pig kidney epithelial cells. Particulars: pig, 75 min, 10 μg/mL. The format is in vitro ADME. As for the experimental part: LLC-PKI cells in 6 cm^2 plastic tissue culture dishes were incubated with 10 μg/mL of the different macrolides. Cells and medium were harvested as described above at 30, 75 and 120 min.
as §1, §2, §3, §4
(§6) For the cells, the sample tubes were weighed, and 100 μL of acetonitrile was added. The samples were vortex mixed for 10 sec, then centrifuged at 10285×g at 4° C. for 5 min. The sample was transferred to a polypropylene tube. The original sample tube was washed with 0.1 M phosphate buffer (1 mL). This was transferred to the polypropylene tube. A second wash of 1 mL was made, then a final wash of 0.5 mL. The polypropylene tube was now at the same stage as the end of the liquid extraction, but with the cells present rather than media. This was then taken through the sample preparation as described above. The original sample tubes were allowed to dry (i.e. any remaining solvent evaporated off) and were then reweighed to determine the weight of cells in the sample, to allow the concentration per gram of cells to be determined.

For series [10], the system named is endosomal pH. The experiment in a line: Acridine orange assay of endosomal pH (Example 13). Type of series: cell-based. To be noted: acridine orange stained endosomes, any cell line. The method, then: Acridine orange is a dye that causes cells to fluoresce green with the exception of acidic compartments (such as endosomes) that appear red—due to the protonation of the dye and quenching of the green fluorescence. A substance that raises the endosomal pH will prevent the appearance of the red fluorescence. The effect of Aivlosin® and other macrolide antibiotics on a the staining of endosomes by acridine orange in number of cells lines was determined (see FIG. 19). An area of cells grown on a glass coverslip is first selected using a DAPI stain. […] This selection procedure helps reduce any bias in the results. The green and red filters on the epifluorescence microscope were then used to examine about 20 cells. The number of red spots (endosome vesicles) in was determined. The average number of Acridine orange stained endosomes was counted.

The test system of series [11] is VR2332 (US strain of PRRSV). The experiment in a line: VR2332 (US strain of PRRSV) entry assay in MA104 cells (Example 10). Particulars: 4 h pretreatment, moi 10, overnight.
Series [12] concerns Caco-2 cells. The experiment in a line: Intracellular accumulation and trans-epithelial transport in polarised Caco-2 cells. Type of series: in vitro ADME, human. Particulars: human, Caco-2, 240 min, 10 μg/mL. As for the experimental part: Caco-2 cells were seeded at a density of 0.8×10^6 cells per well of a Transwell Clear filter 6 well plate, 0.4 μm pore size. The cells were incubated with 2 mL medium in both apical and basolateral chambers. This medium was replaced every 2 days for 10-14 days. Transepithelial resistance was measured using Millicell ERS apparatus (Millipore) at day 7, 10 and/or 14 in order to identify when the cells had become polarised. Readings of >1000 Ω were indicative of polarised cells. […]
as §1, §2, §3, §4, §6
A general note: Passage across Caco-2 layers is used to estimate intestinal permeability.

The subject of series [13] is chicken white blood cells. Kind of series: Intracellular accumulation in chicken white blood cells. Details: intracellular:extracellular ratio, variation during the experimental time period: dose or concentration left out as unconfirmed. To be noted: chicken. Type of series: in vitro ADME. As for the experimental part: Pig blood was collected in Heparin-coated BD vacutainers (6). 20 mL of blood and 30 mL of phosphate buffered saline (PBS) were mixed in a 50 mL conical centrifuge tube. This was repeated in order to obtain 3 such tubes. The mixtures were centrifuged for 10 min at 2050×g. The white blood cells, together with some red blood cells below, were harvested into a 50 mL conical centrifuge tube. PBS was added to about 50 mL. A 63% solution of Percoll was made as follows: 6.3 mL Percoll (Sigma), 1.0 mL 1.5 M NaCl, 2.7 mL H2O. 10 mL of 63% Percoll was added to each of two 50 mL conical centrifuge tubes. 25 mL of the resuspended white blood cells were carefully layered on top of the each of the Percoll solutions. A sharp interface was produced. The material was centrifuged at 3000×g for 10 min. […] The white blood cells were harvested in PBS (50 mL) and centrifuged at 500×g for 10 min. The cell pellet was resuspended in medium (Glasgow minimum essential medium containing penicillin and streptomycin). A viable cell count was made using trypan blue. The same method used for isolation of pig WBCs was used for the chicken WBCs, with the exception that heparin (100 I.U./mL) was prepared and mixed with an equal volume of chicken whole blood.
All tubes were placed on a rotary mixing machine, at 37° C. Supernatant and cell samples were harvested at the times described in the figure legends. Duplicate samples were used for each antibiotic for each time point.
as §1, §2, §3, §4, §5

With `CC[C@H]1OC(=O)C[C@@H](OC(C)=O)[C@H](C)[C@@H](O[C@@H]2O[C@H](C)[C@@H](O[C@H]3C[C@@](C)(O)[C@@H](O)[C@H](C)O3)[C@H](N(C)C)[C@H]2O)[C@@H](CC=O)C[C@@H](C)C(=O)/C=C/C(C)=C/C1CO[C@@H]1O[C@H](C)[C@@H](O)[C@@H](OC)[C@H]1OC` (stereo partly drawn) [3-acetyltylosin, 3-O-Acetyltylosin], in series [1], the “uptake and accumulation in cells” value is recorded as “behave in the same way”.
In the case of `CC[C@H]1OC(=O)[C@H](C)[C@@H](O[C@H]2C[C@@](C)(OC)[C@@H](O)[C@H](C)O2)[C@H](C)[C@@H](O[C@@H]2O[C@H](C)C[C@H](N(C)C)[C@H]2O)[C@](C)(O)C[C@@H](C)CN(C)[C@H](C)[C@@H](O)[C@]1(C)O` [azithromycin], in series [2], the “transintestinal elimination, share of the total administered dose” value is 30-35%.
For the compound `CCN(CC)CCCC(C)Nc1ccnc2cc(Cl)ccc12` (stereo not drawn) [chloroquine], the “concentration required to inhibit infection” value in [3] was “less than 5 μM”; in series [4] it was at least 200 µM; in series [6] it was at least 50 µM. The PRRSV spread entry in series [5] is reported as “no effect”. In series [5], the “initial PRRSV infection (initial site of infection)” value was “no effect”. Besides, the “initial PRRSV infection” value in [5] (added 4 hours before infection) and in series [5] (added at the time of infection) was “inhibited” throughout.
With `CN(C)CCCN1c2ccccc2Sc2ccc(Cl)cc21` [chlorpromazine], in [5], the PRRSV spread entry was “appeared to prevent spread” and the “initial PRRSV infection (initial site of infection)” value is given as “showed the initial site of infection”. For the same compound, the “initial PRRSV infection” value in [5] (added 4 hours before infection) is “inhibited”. In series [5] (added at the time of infection), the “initial PRRSV infection” value was “inhibited”.
Turning to `CC[C@H]1OC(=O)[C@H](C)[C@@H](O[C@H]2C[C@@](C)(OC)[C@@H](O)[C@H](C)O2)[C@H](C)[C@@H](O[C@@H]2O[C@H](C)C[C@H](N(C)C)[C@H]2O)[C@](C)(OC)C[C@@H](C)C(=O)[C@H](C)[C@@H](O)[C@]1(C)O` [clarithromycin], in series [2], the “transintestinal elimination, share of the total administered dose” value was “about 10%”.
For `C=C1[C@@H](C)[C@H]2[C@H](Cc3ccccc3)NC(=O)[C@]23[C@H](OC(C)=O)/C=C/[C@@](C)(O)C(=O)[C@@H](C)C/C=C/[C@H]3[C@@H]1O` [cytochalasin D], in [5], the PRRSV spread result is recorded as “no spread could be detected” and the “initial PRRSV infection (initial site of infection)” value is recorded as “no effect”. For the same compound, in series [5] (added 4 hours before infection), the “initial PRRSV infection” value is “inhibited”. Moreover, in series [5] (added at the time of infection), the “initial PRRSV infection” value is on record as “inhibited”.
For `COC(=O)Nc1nc2ccc(C(=O)c3cccs3)cc2[nH]1` [nocodazole], the EAV infection entry in series [7] is recorded as “not blocked”. Besides, in [5], the “initial PRRSV infection (initial site of infection)” value is “no effect”. Moreover, the “initial PRRSV infection” value in [5] (added 4 hours before infection) was “inhibited”; in series [5] (added at the time of infection), “did not inhibit”.
As for `CC[C@H]1OC(=O)C[C@@H](O)[C@H](C)[C@@H](O[C@@H]2O[C@H](C)[C@@H](O[C@H]3C[C@@](C)(O)[C@@H](O)[C@H](C)O3)[C@H](N(C)C)[C@H]2O)[C@@H](CC=O)C[C@@H](C)C(=O)/C=C/C(C)=C/[C@@H]1CO[C@@H]1O[C@H](C)[C@@H](O)[C@@H](OC)[C@H]1OC` [tylosin], the “intracellular:extracellular ratio” value in series [1] (4 h) and in [1] (24 h) was “less than 1 fold” each time. For the same compound, in series [8], the “effect on PRRSV” value is “no effect”. For the same compound, the average intracellular concentration in [9] came out at 2.41 μg/mg cells; in series [12] it was 1.86 μg/mg cells; in [13] (15 min, 10 μg/mL), 10.1 μg/mg cells. Besides, the “effect on raising the pH in the endosomes” value in series [10] is recorded as “did not have much effect”. Moreover, the “inhibition of VR2332 infection” value in series [11] was “not”. Moreover, the “basolateral chamber content as average % of the apical chamber value” in series [12] worked out at 0.52%. The “intracellular:extracellular ratio, variation during the experimental time period” value in [13] is 2.65-4.7 fold. Further, the intracellular concentration in series [13] (60 min, 10 μg/mL) worked out at 32.1 μg/mg cells.

The record behind these values is patent publication US9649324B2, “Use of tylvalosin as antiviral agent” (ECO ANIMAL HEALTH LIMITED, priority 2006, dated 2017).
